PubChem BioAssay AID1963830 (Molecular Pharmacology Branch, DTP, NCI, 2024)

Tested on: 922993-354-T-J3-PDC complex spheroid viability
Assay: Anticancer human tumor 922993-354-T-J3-PDC patient-derived endometrial carcinoma cell line growth inhibition [POLQ]
Details: for IC50: curve of first compound; for viability, T/C: stronger effect = lower value
Protocol: Multicellular complex tumor spheroid response to Polymerase (POL) inhibitors (novobiocin, ART-558, RP6685) in combination with a variety of drugs and investigational agents in selected tumor cell lines
The POL inhibitors (novobiocin, ART-558, and RP6685) were evaluated both individually and in combination with standard of care and investigational anticancer small molecules within a complex spheroid model of solid tumors. . Complex spheroids include a stromal component modeled by human endothelial cells (HUVEC) and fibroblasts modeled by human mesenchymal stem cells (MSCs). The concentration ranges selected for each drug and investigational agent were based upon clinically achievable concentrations if the clinical Cmax of the agent was known.
Compounds. The drugs and investigational agents: novobiocin (NSC847541), ART-558 (NSC835418), RP-6685 (NSC848927), peposertib (NSC802822), ceralasertib (NSC780249), elimusertib (NSC800525), camonsertib (NSC841442), AZD-1390 (NSC803789), olaparib (NSC753686), talazoparib (NSC767125), rucaparib (NSC756644), sotorasib (NSC818433), MRTX-1133 (NSC836407), SN-38 (NSC673596), topotecan (NSC609699), epotoside (NSC141540), doxorubicin (NSC123127), gemcitabine (NSC613327), 5-fluorouracil (NSC19893), paclitaxel (NSC125973), vemurafenib (NSC761431), MSA-2 (NSC828583), SN-011 (NSC837082), adavosertib (NSC754352), prexasertib (NSC758257), carboplatin (NSC241240) and oxaliplatin (NSC266046), were obtained from the National Cancer Institute (NCI) Developmental Therapeutics Program Chemical Repository (21). The FDA-approved anticancer drug set is available from the Developmental Therapeutics Program at https://dtp.cancer.gov/organization/dscb/obtaining/. […] The stock solutions were prepared in dimethyl sulfoxide (DMSO, Sigma-Aldrich, St. Louis, MO, cat. D2650), except for the platinum compounds which were prepared in saline (Quality Biological, Gaithersburg, MD, cat. 114-055-101), at 800-fold the tested concentration and stored at -70 degrees C prior to their use. All drugs and investigational agents were tested over a range starting from a high concentration at or near the clinical Cmax and decreasing in half-log increments. If the clinical Cmax for an agent had not been determined, the highest concentration tested was 10 microM, except for SN-38, which was tested at a high concentration of 1 microM.
Cell Culture. All cells were maintained in an incubator at 37 degrees C and 5% CO2 with 95% humidity. The PDC lines were cultured according to standard operating procedures established by the NCI PDMR (https://pdmr.cancer.gov). Table 3 of the manuscript, lists the cell lines along with the number of the three cell types plated to form the mct-spheroids and media for tumor cell growth. After thawing, all PDC lines, except 997537-175-T-J1-PDC and 415267-285-R-J2-PDC, were cultured in Matrigel-coated flasks prepared with a working solution of 1X Ham's F-12 nutrient mix, without supplementation (Thermo Fisher Scientific, cat. 11765054), 100 U/mL penicillin-streptomycin (Thermo Fisher Scientific, cat. 15140122), and 2.5% Matrigel (Corning Inc., Corning, NY, cat. 354248) for the first three passages. The two PDC lines 997537-175-T-J1-PDC and 415267-285-R-J2-PDC were cultured on uncoated flasks. The 857933-349-R-J2-PDC line was cultured in 6C/Colon 1B media containing advanced DMEM/F-12 (Thermo Fisher Scientific, cat. 12634028), 10 mM HEPES (Thermo Fisher Scientific, cat. 15630080), 1X GlutaMAX supplement (Thermo Fisher Scientific, cat. 35050061), 0.1 mg/mL primocin (InvivoGen, San Diego, CA, cat. ant-pm-2), 10% defined fetal bovine serum, heat inactivated (HyClone Laboratories Inc., Logan, UT, cat. SH30070.03HI), 50% L-WRN conditioned media (ATCC, cat. CRL-3276), 1.25 mM N-Acetyl-L-cysteine (Sigma-Aldrich, cat. A9165), 10 mM nicotinamide (Sigma-Aldrich, cat. N0636), 1X B-27 supplement (Thermo Fisher Scientific, cat. 17504044), 1X N-2 supplement (Thermo Fisher Scientific, cat. […]

[1] = second compound 0.0316 µM, first compound 0.0316 µM
[2] = second compound 0.0316 µM, first compound 0.1 µM
[3] = second compound 0.0316 µM, first compound 0.316 µM
[4] = second compound 0.0316 µM, first compound 1 µM
[5] = second compound 0.1 µM, first compound 0.0316 µM
[6] = second compound 0.1 µM, first compound 0.1 µM
[7] = second compound 0.1 µM, first compound 0.316 µM
[8] = second compound 0.1 µM, first compound 1 µM
[9] = second compound 0.316 µM, first compound 0.0316 µM
[10] = second compound 0.316 µM, first compound 0.1 µM
[11] = second compound 0.316 µM, first compound 0.316 µM
[12] = second compound 0.316 µM, first compound 1 µM
[13] = second compound 1 µM, first compound 0.0316 µM
[14] = second compound 1 µM, first compound 0.1 µM
[15] = second compound 1 µM, first compound 0.316 µM
[16] = second compound 1 µM, first compound 1 µM
[17] = second compound 3.16 µM, first compound 0.0316 µM
[18] = second compound 3.16 µM, first compound 0.1 µM
[19] = second compound 3.16 µM, first compound 0.316 µM
[20] = second compound 3.16 µM, first compound 1 µM
[21] = second compound 10 µM, first compound 0.0316 µM
[22] = second compound 10 µM, first compound 0.1 µM
[23] = second compound 10 µM, first compound 0.316 µM
[24] = second compound 10 µM, first compound 1 µM
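Also: spheroids exposed to the agents for one week.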
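For viability, T/C in this document: 100% = DMSO vehicle control wells.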

Work on `CC1COCCN1c1cc(C2(S(C)(=N)=O)CC2)nc(-c2ccnc3[nH]ccc23)n1` (centres undefined) + Nc1ccc(C#CCN(C(=O)Cc2ncc(C(F)(F)F)cc2C(F)(F)F)c2ccc(F)cc2)nn1 yielded an IC50 (second compound 0.0316 µM) of over 10 µM, an IC50 (second compound 0.1 µM) of over 10 µM and an IC50 (second compound 0.316 µM) of over 10 µM. It also gave an IC50 (second compound 1 µM) of over 10 µM, an IC50 (second compound 3.16 µM) of over 10 µM and an IC50 (second compound 10 µM) of 6.37 µM. For the same compound, the viability, T/C [1] was 104%, the viability, T/C [2] was 106% and the viability, T/C [3] was 98.7%. It also gave a viability, T/C [4] of 106%, a viability, T/C (second compound 0.0316 µM, first compound 3.16 µM) of 95.5% and a viability, T/C (second compound 0.0316 µM, first compound 10 µM) of 88.5%. For the same compound, the viability, T/C [5] was 107%, the viability, T/C [6] was 105% and the viability, T/C [7] was 101%. The viability, T/C [8] was 102%, the viability, T/C (second compound 0.1 µM, first compound 3.16 µM) was 105% and the viability, T/C (second compound 0.1 µM, first compound 10 µM) was 89.2%. For the same compound, the viability, T/C [9] was 105%, the viability, T/C [10] was 101% and the viability, T/C [11] was 101%. For the same compound, the viability, T/C [12] was 97.2%, the viability, T/C (second compound 0.316 µM, first compound 3.16 µM) was 105% and the viability, T/C (second compound 0.316 µM, first compound 10 µM) was 91.6%. It also gave a viability, T/C [13] of 102%, a viability, T/C [14] of 99% and a viability, T/C [15] of 102%. It also gave a viability, T/C [16] of 98.9%, a viability, T/C (second compound 1 µM, first compound 3.16 µM) of 101% and a viability, T/C (second compound 1 µM, first compound 10 µM) of 89.6%. For the same compound, the viability, T/C [17] was 103%, the viability, T/C [18] was 95% and the viability, T/C [19] was 102%. It also gave a viability, T/C [20] of 95.5%, a viability, T/C (second compound 3.16 µM, first compound 3.16 µM) of 101% and a viability, T/C (second compound 3.16 µM, first compound 10 µM) of 85.3%. The viability, T/C [21] was 98.3%, the viability, T/C [22] was 96.5% and the viability, T/C [23] was 98.7%. It also gave a viability, T/C [24] of 92.9%, a viability, T/C (second compound 10 µM, first compound 3.16 µM) of 81.6% and a viability, T/C (second compound 10 µM, first compound 10 µM) of 29.9%.

`CCc1c2c(nc3ccc(O)cc13)-c1cc3c(c(=O)n1C2)COC(=O)[C@]3(O)CC` + Nc1ccc(C#CCN(C(=O)Cc2ncc(C(F)(F)F)cc2C(F)(F)F)c2ccc(F)cc2)nn1 showed an IC50 (second compound 0.0316 µM) of 0.0279 µM, an IC50 (second compound 0.1 µM) of 0.0262 µM and an IC50 (second compound 0.316 µM) of 0.031 µM. For the same compound, the IC50 (second compound 1 µM) was 0.0322 µM, the IC50 (second compound 3.16 µM) was 0.0221 µM and the IC50 (second compound 10 µM) was 0.0144 µM. For the same compound, the viability, T/C (second compound 0.0316 µM, first compound 0.00316 µM) was 99%, the viability, T/C (second compound 0.0316 µM, first compound 0.01 µM) was 91.1% and the viability, T/C [1] was 45.5%. For the same compound, the viability, T/C [2] was 20.1%, the viability, T/C [3] was 18.8% and the viability, T/C [4] was 26.7%. It also gave a viability, T/C (second compound 0.1 µM, first compound 0.00316 µM) of 100%, a viability, T/C (second compound 0.1 µM, first compound 0.01 µM) of 88.8% and a viability, T/C [5] of 43.3%. It also gave a viability, T/C [6] of 17.9%, a viability, T/C [7] of 19.8% and a viability, T/C [8] of 24.8%. It also gave a viability, T/C (second compound 0.316 µM, first compound 0.00316 µM) of 104%, a viability, T/C (second compound 0.316 µM, first compound 0.01 µM) of 92.2% and a viability, T/C [9] of 50.3%. The viability, T/C [10] was 20.3%, the viability, T/C [11] was 16.8% and the viability, T/C [12] was 26.6%. It also gave a viability, T/C (second compound 1 µM, first compound 0.00316 µM) of 102%, a viability, T/C (second compound 1 µM, first compound 0.01 µM) of 88.9% and a viability, T/C [13] of 52.4%. For the same compound, the viability, T/C [14] was 18.4%, the viability, T/C [15] was 17.7% and the viability, T/C [16] was 25.9%. It also gave a viability, T/C (second compound 3.16 µM, first compound 0.00316 µM) of 95.6%, a viability, T/C (second compound 3.16 µM, first compound 0.01 µM) of 76.3% and a viability, T/C [17] of 39.7%. For the same compound, the viability, T/C [18] was 17.4%, the viability, T/C [19] was 18.2% and the viability, T/C [20] was 27.7%. It also gave a viability, T/C (second compound 10 µM, first compound 0.00316 µM) of 87%, a viability, T/C (second compound 10 µM, first compound 0.01 µM) of 63.9% and a viability, T/C [21] of 16.1%. It also gave a viability, T/C [22] of 16.3%, a viability, T/C [23] of 20.1% and a viability, T/C [24] of 29.6%.
